These results are taken from US5633345A, “Cyclic peptides” (priority 1992, dated 1997).

Assay in all cases: Antifungal activity, MIC by agar dilution method
For orientation: Agar dilution tests growth on a series of plates holding different concentrations.

For assay [1], the system named is C. albicans TIMM 0171. It is filed as cell-based, Candida albicans. The note with it: for MIC: C. albicans TIMM 0171, Sabouraud-dextrose agar medium, 30° C. for 2 days. On the procedure: (§1) The minimum inhibitory concentration (MIC) values were determined after incubation at 30° C. for 2 days.
The subject of assay [2] is Cryptococcus neoformans TIMM 0354. It is filed as cell-based. The note with it: Sabouraud-dextrose agar medium, 30° C. for 2 days. On the procedure: as §1
Assay [3] deals with Candida albicans TIMM 0136. It is filed as cell-based. The note with it: Sabouraud-dextrose agar medium, 30° C. for 2 days. On the procedure:
as §1

The subject of assay [4] is C. grabrata TIMM 1062. Format: cell-based. The note with it: Sabouraud-dextrose agar medium, 30° C. for 2 days. On the procedure: as §1
The test system of assay [5] is C. kefyr TIMM 0301. Format: cell-based. The note with it: Sabouraud-dextrose agar medium, 30° C. for 2 days. On the procedure:
as §1

Bounds are passed on as bounds.

For the substance “cyclo(L-GluOR-L-MeVal-L-Leu-L-βHOMeVal-D-Hmp-L-MeVal-L-Phe-L-MePhe-L- Pro) (R: cis-3-hexenyl) [Compound 34]”, the MIC in assay [1] was 0.10 µg/mL; in assay [2], above 25 µg/mL; in assay [3], 0.20 µg/mL; in assay [4] it was 0.39 µg/mL; in assay [5], 0.78 µg/mL.
Take “cyclo(L-GluOR-L-MeVal-L-Leu-L-βHOMeVal-D-Hmp-L-MeVal-L-Phe-L-MePhe-L- Pro) (R: n-decyl) [Compound 33]”: the MIC in assay [1] was 1.56 µg/mL; in assay [2], above 25 µg/mL; in assay [3], 1.56 µg/mL; in assay [4] it was above 25 µg/mL; in assay [5], above 25 µg/mL.
Consider “cyclo(L-GluOR-L-MeVal-L-Leu-L-βHOMeVal-D-Hmp-L-MeVal-L-Phe-L-MePhe-L- Pro) (R: n-hexyl) [Compound 31]”, for which the MIC in assay [1] is 0.20 µg/mL; in assay [2], above 25 µg/mL; in assay [3], 0.39 µg/mL; in assay [4] it was 1.56 µg/mL; in assay [5] it was 3.12 µg/mL.
For “cyclo(L-GluOR-L-MeVal-L-Leu-L-βHOMeVal-D-Hmp-L-MeVal-L-Phe-L-MePhe-L- Pro) (R: n-octyl) [Compound 32]”, the MIC in assay [1] was 0.78 µg/mL; in assay [2] it was above 25 µg/mL; in assay [3] it was 0.78 µg/mL; in assay [4], 1.56 µg/mL; in assay [5], 6.25 µg/mL.
On to “cyclo(L-GluOR-L-MeVal-L-Leu-L-βHOMeVal-D-Hmp-L-MeVal-L-Phe-L-MePhe-L- Pro) (R: trans-3-hexenyl) [Compound 35]”, for which the MIC in assay [1] is 0.78 µg/mL; in assay [2], above 25 µg/mL; in assay [3] it was 0.20 µg/mL; in assay [4] it was 0.39 µg/mL; in assay [5] it was 1.56 µg/mL.
In the case of “cyclo(L-RONva-L-MeVal-L-Leu-L-βHOMeVal-D-Hmp-L-MeVal-L-Phe-L-MePhe-L- Pro) (R: n-hexanoyl) [Compound 37]”, the MIC in assay [1] turned out to be 0.10 µg/mL; in assay [2], 12.5 µg/mL; in assay [3] it was 0.10 µg/mL; in assay [4], 0.39 µg/mL; in assay [5], 0.78 µg/mL.
With “cyclo(L-aIle-L-MeVal-L-GluOR-L-βHOMeVal-D-Hmp-L-MeVal-L-Phe-L-MePhe-L-Pro) (R: cHex) [Compound 38]”, the MIC in assay [1] was 0.013 µg/mL; in assay [2], above 25 µg/mL; in assay [3] it was 0.20 µg/mL; in assay [4], 1.56 µg/mL; in assay [5], 3.12 µg/mL. Also, the “activity against Candida albicans TIMM 0171 compared with compound 1” value in assay [1] (comparison in words) is on record as “higher activity against Candida albicans TIMM 0171 than compound 1”.
For the substance “cyclo(L-aIle-L-ROMeNva-L-Leu-L-βHOMeVal-D-Hmp-L-MeVal-L-Phe-L-MePhe-L-Pro) (R: Bzl) [Compound 27]”, the MIC was 0.78 µg/mL in assay [1]; above 25 µg/mL in assay [2]; 0.78 µg/mL in assay [3]; above 25 µg/mL in assay [4]; 3.12 µg/mL in assay [5].

As a reminder, the MIC is the least concentration at which growth counts as inhibited. Lower therefore signals inhibition by little substance.
